Tested on: isolated rat hepatocytes
Assay: Hepatic production of glucose, 3 h incubation
Format: cell-based, Wistar rat
Conditions: for activity at 50 µM / activity at 100 µM: Hepatocyte, rat hepatocytes; for activity at 50 µM: read-out: HGP % of ctrl @ 50 μM; for activity at 100 µM: read-out: HGP % of ctrl @ 100 μM
Description: The hepatocytes are isolated from Wistar rat liver having fasted for 24 h after perfusion of collagenase in the portal vein. 1) The freshly isolated hepatocytes are sown in 6-well plates coated with collagen and containing an adhesion medium (Williams Medium). After adhesion, the medium is replaced with RPMI 1640 medium without any glucose, containing hydrocortisone (7·10^−5M) for a duration from 16 to 18 h. The next day, the glucose hepatic production test is conducted in a Krebs medium for 3 h. The basal conditions are cells incubated with only Krebs, the stimulated conditions are the cells placed in Krebs+lactate+pyruvate, the produced conditions are the cells exposed to chemical compounds in a Krebs/lactate/pyruvate medium. In the case when the compounds are dissolved in DMSO, all the conditions of the tests are met in the presence of a final concentration of 0.1% DMSO. The positive control of the test is the mercaptopicolinate known for its inhibitory action on hepatic production of glucose via the phosphoenolpyruvate carboxykinase. For short term treatments, the compounds are incubated for 3 h. For long term treatments, the compounds are incubated for 20 h at the moment when the hepatocytes are cultivated in RPMI and then added during the hepatic production test for 3 h. At the end of the 3 hours of incubation, the supernatant is recovered for measurement of glucose with a colorimetric method using glucose oxidase. The cells are lysed with a 0.1% NaOH aqueous solution in order to measure the amount of protein with the Lowry method. The results are expressed in mmol of glucose per mg of protein.

| Compound | activity at 50 µM [%] | activity at 100 µM [%] | inhibition of hepatic production of glucose (with two doses) | inhibition of hepatic production of glucose (dose of 100 μM) |
| --- | --- | --- | --- | --- |
| CCOC(=O)COCc1nc2ccccn2c1C#Cc1ccc(OC)cc1 [Derivative 4, ethyl 2-((3-((4-methoxyphenyl)-ethynyl)-imidazo[1,2-a]pyridin-2-yl)-methoxy)acetate] | 81 | 74 | – | – |
| CCOC(=O)COCc1nc2ccccn2c1C#Cc1cccc(C(F)(F)F)c1 [Derivative 7, ethyl 2-((3-((3-(trifluoromethyl)-phenyl)ethynyl)imidazo[1,2-a]pyridin-2-yl)methoxy)acetate] | 55 | 45 | strongest inhibitions | – |
| CCOC(=O)COCc1nc2ccccn2c1C#Cc1ccc(F)c(F)c1 [Derivative 10, ethyl 2-((3-((3,4-difluorophenyl)-ethynyl)imidazo[1,2-a]pyridin-2-yl)methoxy)acetate] | 86 | 71 | – | – |
| CCOC(=O)COCc1nc2ccccn2c1C#Cc1cccc(F)c1 [Derivative 23, ethyl 2-((3-((3-fluorophenyl)-ethynyl)imidazo[1,2-a]pyridin-2-yl)methoxy)acetate] | 95 | 73 | – | – |
| O=C(O)COCc1nc2ccccn2c1C#Cc1cccc(OC(F)(F)F)c1 [Derivative 29, 2-((3-((3-(trifluoromethoxy)phenyl)-ethynyl)imidazo[1,2-a]pyridin-2-yl)methoxy)acetic acid] | 63 | 40 | – | strongest inhibitions |
| COc1cccc(C#Cc2c(COCC(=O)O)nc3ccccn23)c1 [Derivative 30, 2-((3-((3-methoxyphenyl)ethynyl)-imidazo[1,2-a]pyridin-2-yl)methoxy)acetic acid] | 74 | 60 | – | – |
| O=C(O)COCc1nc2ccccn2c1C#Cc1cccc(OC(F)F)c1 [Derivative 35, 2-((3-((3-(difluoromethoxy)phenyl)-ethynyl)imidazo[1,2-a]pyridin-2-yl)methoxy)acetic acid] | 73 | 64 | – | – |
| O=C([O-])COCc1nc2ccccn2c1C#Cc1cccc(C(F)(F)F)c1.[Na+] [Derivative 51, sodium 2-((3-((3-(trifluoromethyl)-phenyl)ethynyl)imidazo[1,2-a]pyridin-2-yl)methoxy)acetate] | 61 | 45 | – | strongest inhibitions |
| COC(=O)c1ccccc1OCc1nc2ccccn2c1C#Cc1cccc(C(F)(F)F)c1 [Derivative 77, methyl 2-((3-((3-(trifluoromethyl)-phenyl)ethynyl)imidazo[1,2-a]pyridin-2-yl)methoxy)benzoate] | 87 | 50 | – | strongest inhibitions |
| O=C(O)c1ccccc1OCc1nc2ccccn2c1C#Cc1cccc(C(F)(F)F)c1 [Derivative 89, 2-((3-((3-(trifluoromethyl)phenyl)-ethynyl)imidazo[1,2-a]pyridin-2-yl)methoxy)benzoic acid] | 78 | 33 | – | strongest inhibitions |
| O=C(O)c1ccc(OCc2nc3ccccn3c2C#Cc2cccc(C(F)(F)F)c2)cc1 [Derivative 90, 4-((3-((3-(trifluoromethyl)phenyl)-ethynyl)imidazo[1,2-a]pyridin-2-yl)methoxy)benzoic acid] | 77 | 27 | – | strongest inhibitions |
| O=C(O)c1cccc(OCc2nc3ccccn3c2C#Cc2ccccc2)c1 [Derivative 93, 3-((3-(phenylethynyl)imidazo[1,2-a]pyridin-2-yl)methoxy) benzoic acid] | 26 | 19 | strongest inhibitions | – |
| CN(C)CCNC(=O)c1ccccc1OCc1nc2ccccn2c1C#Cc1ccc(F)cc1 [Derivative 95, N-(2-(dimethylamino)ethyl)-2-((3-((4-fluorophenyl)ethynyl)-imidazo[1,2-a]pyridin-2-yl)methoxy)benzamide] | 65 | 62 | – | – |
| O=C(NO)c1ccccc1OCc1nc2ccccn2c1C#Cc1ccc(F)cc1 [Derivative 96, 2-((3-((4-fluorophenyl)ethynyl)-imidazo[1,2-a]pyridin-2-yl)-methoxy)-N-hydroxybenzamide] | 81 | 66 | – | – |
| CC1(C)COC(=O)C1OCc1nc2ccccn2c1C#Cc1cccc(C(F)(F)F)c1 (stereo not shown) [Derivative 99, 4,4-dimethyl-3-[[3-[2-[3-(trifluoromethyl)phenyl]ethynyl]imidazo[1,2-a]pyridin-2-yl]methoxy]-tetrahydrofuran-2-one] | 85 | 68 | – | – |
| CCOC(=O)CSCc1nc2ccccn2c1C#Cc1cccc(C(F)(F)F)c1 [Derivative 108, ethyl 2-[[3-[2-[3-(trifluoromethyl)-phenyl]ethynyl]imidazo[1,2-a]pyridin-2-yl]methylsulfanyl]acetate] | 89 | 64 | – | – |
| CCOC(=O)CSCc1nc2ccccn2c1C#Cc1cccc(OC(F)(F)F)c1 [Derivative 109, ethyl 2-[[3-[2-[3-(trifluoromethoxy)-phenyl]ethynyl]imidazo[1,2-a]pyridin-2-yl]methylsulfanyl]acetate] | 80 | 61 | – | – |
| O=C(O)CSCc1nc2ccccn2c1C#Cc1cccc(C(F)(F)F)c1 [Derivative 115, 2-[[3-[2-[3-(trifluoromethyl)phenyl]-ethynyl]imidazo[1,2-a]pyridin-2-yl]methylsulfanyl]acetic acid] | 94 | 54 | – | strongest inhibitions |
| O=C(O)CSCc1nc2ccccn2c1C#Cc1cccc(OC(F)(F)F)c1 [Derivative 116, 2-[[3-[2-[3-(trifluoromethoxy)-phenyl]ethynyl]imidazo[1,2-a]pyridin-2-yl]methylsulfanyl] acetic acid] | 88 | 64 | – | – |
| O=C(O)CSCc1nc2ccc(Cl)cn2c1C#Cc1cccc(OC(F)(F)F)c1 [Derivative 119, 2-[[6-chloro-3-[2-[3-(trifluoro-methoxy)phenyl]ethynyl]imidazo [1,2-a]pyridin-2-yl]methyl-sulfanyl]acetic acid] | 73 | – | – | – |
| O=C(CSCc1nc2ccccn2c1C#Cc1cccc(OC(F)(F)F)c1)Nc1cccnc1 [Derivative 126, N-(3-pyridyl)-2-[[3-[2-[3-(trifluoromethoxy)phenyl]ethynyl]imidazo[1,2-a]pyridin-2-yl]methylsulfanyl]acetamide] | 72 | 68 | – | – |

From patent US9381191B2, “Imidazopyridine derivatives useful in treating diabetes” (METABRAIN RESEARCH, priority 2012, dated 2016)
